We go through 4 molecules from US7812053B2, “4-((phenoxyalkyl)thio)-phenoxyacetic acids and analogs” (Janssen Pharmaceuticals NV, priority 2004, dated 2010).

“And” between values parts separate entries of the source, which are not always exact repeats. Equal values may be shown once.

Assay [1] has as its system differentiated THP-1 monocytes. To be noted: cited from earlier work.
Assay [2] concerns the target T1, PPARγ ligand binding domain fused to the yeast GAL4 DNA binding domain (Homo sapiens, UniProt P37231).
T1 construct: expressed in transfected cells; host or cells: HEK293
T1 sequence (P37231 238-503 limits assumed): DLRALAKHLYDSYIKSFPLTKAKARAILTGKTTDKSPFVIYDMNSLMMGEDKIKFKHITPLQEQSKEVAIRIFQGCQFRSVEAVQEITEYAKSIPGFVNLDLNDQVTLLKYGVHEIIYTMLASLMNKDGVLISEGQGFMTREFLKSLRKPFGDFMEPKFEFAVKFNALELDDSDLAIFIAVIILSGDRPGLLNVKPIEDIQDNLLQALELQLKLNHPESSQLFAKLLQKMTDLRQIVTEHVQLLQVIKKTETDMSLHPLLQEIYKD
Nature of the assay: Transfection assay for PPAR receptors (GAL4-LBD luciferase reporter), PPAR gamma. The assay is classed as cell-based. The note with it: HEK293 cells, GAL4 (UAS) luciferase reporter, 18-24 hrs. On the procedure: (§1) Transfection Assay Method for PPAR Receptors
(§2) HEK293 cells were grown in DMEM/F12 medium supplemented with 10% FBS and glutamine (Invitrogen) and incubated in a 5% CO2 incubator at 37° C. The cells were co-transfected using DMRIE-C reagent (Invitrogen) in serum free medium (Opti-MEM, Invitrogen) with two mammalian expression plasmids, one containing the DNA sequence coding for the ligand binding domains of either PPARα, γ or δ fused to the yeast GAL4 DNA binding domain and the other containing the promoter sequence of the yeast GAL4 (UAS) fused to the firefly luciferase cDNA reporter. The next day, the medium was changed to DMEM/F12 medium supplemented with 5% charcoal treated serum (Hyclone) and glutamine. After 6 hrs the cells were trypsinized and seeded at a density of 50,000 cells/well into 96 well plates and incubated overnight as above. The cells were then treated with test compounds or vehicle and incubated for 18-24 hrs as above. Luciferase reporter activity was measured using the Steady-Glo Luciferase Assay Kit from Promega. DMRIE-C Reagent was purchased from GIBCO Cat. No. 10459-014. OPTI-MEM I Reduced Serum Medium was purchased from GIBCO (Cat. No. 31985). Steady-Glo Luciferase Assay Kit was purchased from Promega (Part# E254B).
A variety of example compounds have been made and tested, with a range of in vitro results. […]

In assay [3] the target is T2, PPARα ligand binding domain fused to the yeast GAL4 DNA binding domain (Homo sapiens, UniProt Q07869).
T2 construct: expressed in transfected cells; host or cells: HEK293
T2 sequence (Q07869 239-466 limits assumed): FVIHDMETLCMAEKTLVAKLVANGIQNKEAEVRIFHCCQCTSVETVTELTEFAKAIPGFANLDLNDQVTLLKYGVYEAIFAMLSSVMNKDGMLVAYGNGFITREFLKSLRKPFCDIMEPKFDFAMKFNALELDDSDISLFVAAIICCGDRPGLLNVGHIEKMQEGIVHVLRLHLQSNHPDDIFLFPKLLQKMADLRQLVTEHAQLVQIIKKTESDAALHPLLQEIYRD
Nature of the assay: Transfection assay for PPAR receptors (GAL4-LBD luciferase reporter), PPAR alpha. The assay is classed as cell-based. The note with it: HEK293 cells, GAL4 (UAS) luciferase reporter, 18-24 hrs. On the procedure:
as §1, §2
(§3) A variety of example compounds have been made and tested, with a range of in vitro results. Below are representative compounds and data; in some cases, where multiple EC50's are shown, multiple measurements were taken. Naturally, different compounds in Formula (I) may have not have activities identical to any one compound below.

Assay [4] deals with T3, PPARδ ligand binding domain fused to the yeast GAL4 DNA binding domain (Homo sapiens, UniProt Q03181).
T3 construct: expressed in transfected cells; host or cells: HEK293
T3 sequence (Q03181 211-439 limits assumed): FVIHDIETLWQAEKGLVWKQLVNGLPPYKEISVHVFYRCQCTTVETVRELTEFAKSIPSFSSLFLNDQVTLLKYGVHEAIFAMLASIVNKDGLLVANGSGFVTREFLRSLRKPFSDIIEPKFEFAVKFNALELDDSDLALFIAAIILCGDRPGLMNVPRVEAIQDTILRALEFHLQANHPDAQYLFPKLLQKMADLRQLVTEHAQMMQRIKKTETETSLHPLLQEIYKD
Nature of the assay: Transfection assay for PPAR receptors (GAL4-LBD luciferase reporter), PPAR delta. It counts as cell-based. The note with it: HEK293 cells, GAL4 (UAS) luciferase reporter, 18-24 hrs; multiple values = multiple measurements. On the procedure: as §1, §2, §3

Turning to `Cc1cc(SCc2sc(-c3ccc(C(F)(F)F)cc3)nc2C)ccc1OCC(=O)O` [GW501516], in assay [1], the “ABCA1 mRNA expression” value was “induced ABCA1 mRNA expression” and the cholesterol efflux entry is recorded as “enhanced cholesterol efflux”.

On to `CCOC(COc1ccc(C(F)(F)F)cc1)CSc1ccc(OC(C)(C)C(=O)O)c(C)c1` (stereo not shown) [Compound 3, 2-{4-[2-Ethoxy-3-(4-trifluoromethyl-phenoxy)-propylsulfanyl]-2-methyl-phenoxy}-2-methyl-propionic acid], for which the EC50 in assay [2] was 565 nM; in assay [3], 537 nM; in assay [4], 34 nM and 27.5 nM.

For `CCC(COc1ccc(C(F)(F)F)cc1)CSc1ccc(OC(C)C(=O)O)c(C)c1` (stereo not shown) [Compound 1, 2-{2-Methyl-4-[2-(4-trifluoromethyl-phenoxymethyl)-butylsulfanyl]-phenoxy}-propionic acid], the EC50 in assay [3] was 548 nM; in assay [4] it was 13.8 nM and 14.9 nM.

On to `CCC(COc1ccc(C(F)(F)F)cc1)CSc1ccc(OC(C)(C)C(=O)O)c(C)c1` (stereo not shown) [Compound 2, 2-Methyl-2-{2-methyl-4-[2-(4-trifluoromethyl-phenoxymethyl)-butylsulfanyl]-phenoxy}-propionic acid], for which the concentration giving a half-maximal response (EC50) was 278 nM in assay [2]; 237 nM in assay [3]; 9.1 nM and 11.1 nM in assay [4].
